Patent US6391339B1, “Use of oligosaccharide for preventing blood clotting in extracorporeal blood circuits” (Akzo Nobel N.V., priority 1997, dated 2002)

Test system: patients undergoing chronic intermittent haemodialysis
Details: 12 haemodialysis patients; half an hour before the end of the last dialysis
Protocol: The study consisted of 2 phases (block A and block B). In block A, 10 mg of Org 31540/SR 90107 A was administered. Thereafter, in block B, 8, 6, and 4 mg of Org 31540/SR 90107 A were used.
Medication was given as an intravenous bolus predialysis for 1 dialysis each week. Efficacy was assessed by determining patency of the dialyzer, buffer and bubble chamber, every hour during dialysis by visual examination and by blood sampling of specific coagualtion, heamatologic and biochemical parameters. Anti-Xa plasma samples, to determine pharmacokinetics, were taken every hour during dialysis and 1 hour after dialysis and daily for 3 days post-dialysis. Safety was assessed by evaluating major and minor bleeding complications each dialysis.

`CO[C@H]1O[C@H](COS(=O)(=O)O)[C@@H](O[C@@H]2O[C@@H](C(=O)O)[C@@H](O[C@H]3O[C@H](COS(=O)(=O)O)[C@@H](O[C@@H]4O[C@H](C(=O)O)[C@@H](O[C@H]5O[C@H](COS(=O)(=O)O)[C@@H](O)[C@H](O)[C@H]5NS(=O)(=O)O)[C@H](O)[C@H]4O)[C@H](OS(=O)(=O)O)[C@H]3NS(=O)(=O)O)[C@H](O)[C@H]2OS(=O)(=O)O)[C@H](O)[C@H]1NS(=O)(=O)O` [Org 31540/SR 90107 A, methyl O—(2-deoxy-2-sulphoamino-6-O-suplho-α-D-glucopyranosyl)-(1→4)—O—(β-D-glucopyranosyluronic acid)-(1→4)—O—(2-deoxy-2-sulphoamino-3,6-di-O-sulpho-α-D-glucopyranosyl)-(1→4)—O—(2-O-sulpho-α-L-idopyranosyluronic acid)-(1→4)-2-deoxy-2-sulphoamino-6-O-sulpho-α-D-glucopyranoside] was tested, and the “clot in the buffer chamber making dialysis impossible” value was “Only in one patient”.
